≈ marks a conversion by molar mass, not a printed value. Like-named read-outs stand apart in the source and are kept apart here.
What was measured:
[1] = Aqueous solubility (buffer vs acetonitrile/water, LC-UV); assay type: physicochemical; details: kinetic from dmso stock, 2.5% DMSO
Description: The aqueous solubility of the compounds of the invention is determined by comparing the amount dissolved in buffer to the amount in an acetonitrile/water (1/1) solution. Starting from a 10 mM DMSO stock solution aliquots are diluted with acetonitrile/water (1/1) or buffer, respectively. After 24 h of shaking, the solutions are filtrated and analyzed by LC-UV. The amount dissolved in buffer is compared to the amount in the acetonitrile solution.
Solubility is usually being measured from 0.001 to 0.125 mg/mL at a DMSO concentration of 2.5%. If more than 90% of the compound is dissolved in buffer, the value is marked with “>”.

human GPR40 receptor = human GPR40 receptor (Homo sapiens, UniProt O14842); assay: IP1 accumulation measurements using the IPOne assay system; assay type: cell-based; details: 1321N1 cells stably expressing human GPR40; 1 h stimulation at 37° C.
Sequence of human GPR40 receptor (O14842 whole entry): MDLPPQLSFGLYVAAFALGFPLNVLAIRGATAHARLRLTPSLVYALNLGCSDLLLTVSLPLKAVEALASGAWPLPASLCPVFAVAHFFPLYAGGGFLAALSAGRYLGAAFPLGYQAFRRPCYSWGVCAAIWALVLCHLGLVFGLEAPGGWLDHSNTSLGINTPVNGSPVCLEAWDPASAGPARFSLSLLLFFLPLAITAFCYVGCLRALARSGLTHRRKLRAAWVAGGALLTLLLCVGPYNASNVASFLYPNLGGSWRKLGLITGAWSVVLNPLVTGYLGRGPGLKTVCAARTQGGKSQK
Description: IP1 accumulation measurements using the IPOne assay system—1321N1 cells stably expressing human GPR40 receptor (Euroscreen, Belgium) are seeded 24 h before the assay in white 384-well plates in culture medium containing 10% FCS, 1% Na-Pyruvate and 400 μg/mL G418. IP1 is assayed according to the manufacturer's description (Cisbio Bioassays, France). In brief, the assay is started by substitution of the culture medium by stimulation buffer (Hepes 10 mM, CaCl2) 1 mM, MgCl2 0.5 mM, KCl 4.2 mM, NaCl 146 mM, glucose 5.5 mM and LiCl 50 mM, pH 7.4). Cells are stimulated for 1 h at 37° C., 5% CO2 by addition of the compounds that are diluted in stimulation buffer containing LiCl. Assays are stopped by adding HTRF-conjugates (IP1-d2 and Anti-IP1 cryptate Tb) and lysis buffer, provided by the manufacturer. After an incubation time of 1 h at room temperature plates are measured using an EnVision™, Perkin Elmer. The obtained fluorescence ratios at 665/615 […] are then used to calculate the pEC50 values using Assay Explorer 3.3 Software (Accelrys, Inc.) by interpolation using an IP1 reference curve and subsequent sigmoidal curve fitting allowing for a variable hill slope.

[2] = pH 2.2, 24 h shaking, read-out: Solubility at pH 2.2
[3] = pH 6.8, 24 h shaking, read-out: Solubility at pH 6.8

Row | SMILES | solubility at 24 h [1, 2] [µg/mL] | solubility at 24 h [1, 3] [µg/mL] | EC50 (human GPR40 receptor) [nM]
1 | Cc1cc(-c2nnn(C)n2)cc(C)c1-c1cccc(COc2ccc([C@H]3C[C@@H]3C(=O)O)nc2)c1 [Example 1, (1S,2S)-2-{5-[2′,6′-Dimethyl-4′-(2-methyl-2H-tetrazol-5-yl)-biphenyl-3-ylmethoxy]-pyridin-2-yl}-cyclopropanecarboxylic Acid] | 7 (≈ 15.4 µM) | 19 (≈ 41.7 µM) | 5
2 | Cc1cc(OCCC(C)(C)O)cc(C)c1-c1cccc(COc2ccc([C@H]3C[C@@H]3C(=O)O)nc2)c1 [Example 3, (1S,2S)-2-{5-[4′-(3-Hydroxy-3-methyl-butoxy)-2′,6′-dimethyl-biphenyl-3-ylmethoxy]-pyridin-2-yl}-cyclopropanecarboxylic Acid] | 24 (≈ 50.5 µM) | 40 (≈ 84.1 µM) | 19
3 | Cc1cc(OCCC(C)(C)O)cc(C)c1-c1ccc(F)c2c1CC[C@H]2Oc1ccc([C@H]2C[C@@H]2C(=O)O)cc1 [Example 17 in WO 2013/178575, reference compound] | < 1 | < 1 | 
4 | Cc1cc(-c2nnn(C)n2)cc(C)c1-c1ccc(F)c2c1CC[C@H]2Oc1ccc([C@H]2C[C@@H]2C(=O)O)cc1 [Example 45 in WO 2013/178575, reference compound] | < 1 | < 1 | 

Reference: patent US10913720B2, “Benzyloxypyridylcyclopropanecarboxylic acids, pharmaceutical compositions and uses thereof” (Boehringer Ingelheim International GmbH, priority 2017, dated 2021)
